Results from patent US20230077362A1 (CORTEVA AGRISCIENCE LLC, priority 2019, published 2023).
Like-named read-outs stand apart in the source and are kept apart here.

Legend:
[1] = tested on: Cabbage Looper (Trichoplusia ni) ("CL"), second instar larvae; assay: Bioassay on cabbage looper (CL), 128-well diet tray assay; assay type: in vivo; conditions: for pest or weed control at 50 µg/cm2: Trichoplusia ni; for CL rating: Table ABC, species CL, C = not tested, D = no activity noticed
In short: (§1)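 Read-out: percent larval mortality per well, averaged over 8 wells. Incubation 25° C., 14:10 L:D photoperiod, 5–7 days, trays sealed with clear adhesive cover.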

[2] = tested on: Beet Armyworm (Spodoptera exigua) ("BAW"), second instar larvae; assay: Bioassay on beet armyworm (BAW), 128-well diet tray assay; assay type: in vivo; conditions: for pest or weed control at 50 µg/cm2: Spodoptera exigua; for BAW rating: Table ABC, species BAW, C = not tested, D = no activity noticed
In short: as §1

[3] = read-out: CL (Biological Results, rating)
[4] = read-out: BAW (Biological Results, rating)

Row | Structure (SMILES) | pest or weed control at 50 µg/cm2 ([1]; read-out: CL rating) | pest or weed control at 50 µg/cm2 ([2]; read-out: BAW rating) | pest or weed control at 50 µg/cm2 [1, 3] | pest or weed control at 50 µg/cm2 [2, 4] | also measured
1 | CC(C)c1ccc(N(C)C)cc1N1C(=O)CS/C1=N\C(=O)Nc1ccc(-c2ncn(-c3ccc(S(=O)(=O)C(F)(F)F)cc3)n2)cc1C#N [Compound J414, (Z)-1-(2-Cyano-4-(1-(4-((trifluoromethyl)sulfonyl)phenyl)-1H-1,2,4-triazol-3-yl)phenyl)-3-(3-(5-(dimethylamino)-2-isopropylphenyl)-4-oxothiazolidin-2-ylidene)urea] | 50 to 100% | 50 to 100% | – | – | –
2 | Cc1ccc(COCC(F)(F)F)c(N2C(=O)CS/C2=N\C(=O)Nc2ccc(-c3ncn(-c4ccc(OC(F)(F)F)cn4)n3)cc2C)c1 [Compound J241, (Z)-1-(3-(5-Methyl-2-((2,2,2-trifluoroethoxy)methyl)phenyl)-4-oxothiazolidin-2-ylidene)-3-(2-methyl-4-(1-(5-(trifluoromethoxy)pyridin-2-yl)-1H-1,2,4-triazol-3-yl)phenyl)urea] | – | – | 50 to 100% | 50 to 100% | –
3 | CCOCc1ccc(C)cc1N1C(=O)CS/C1=N\C(=O)Nc1ccc(-c2ncn(-c3cccc(C(F)(F)F)c3)n2)cc1F [Compound J723] | – | – | – | – | CL rating [1]: A (50-100); BAW rating [2]: A (50-100)
4 | Cc1ccc(COCC(F)(F)F)c(N2C(=O)CS/C2=N\C(=O)Nc2ccc(-c3ncn(-c4ccc(OCC#N)cc4)n3)cc2F)c1 [Compound J343, (Z)-1-(4-(1-(4-(Cyanomethoxy)phenyl)-1H-1,2,4-triazol-3-yl)-2-fluorophenyl)-3-(3-(5-methyl-2-((2,2,2-trifluoroethoxy)methyl)phenyl)-4-oxothiazolidin-2-ylidene)urea] | – | – | 50 to 100% | 50 to 100% | –
5 | Cc1ccc(COCC(F)(F)F)c(N2C(=O)CS/C2=N\C(=O)Nc2ccc(-c3ncn(-c4ccc(OC(F)(F)F)cc4)n3)cc2)c1 [Compound J331, (Z)-1-(3-(5-Methyl-2-((2,2,2-trifluoroethoxy)methyl)phenyl)-4-oxothiazolidin-2-ylidene)-3-(4-(1-(4-(trifluoromethoxy)phenyl)-1H-1,2,4-triazol-3-yl)phenyl)urea] | – | – | 50 to 100% | 50 to 100% | –
6 | COc1ccc(C(C)C)c(N2C(=O)CS/C2=N\C(=O)Nc2ccc(-c3ncn(-c4ccc(OC(F)(F)F)cc4)n3)cc2OC)c1 [Compound J6, (Z)-1-(3-(2-Isopropyl-5-methoxyphenyl)-4-oxothiazolidin-2-ylidene)-3-(2-methoxy-4-(1-(4-(trifluoromethoxy)phenyl)-1H-1,2,4-triazol-3-yl)phenyl)urea] | – | – | 50 to 100% | 50 to 100% | –
7 | CNc1ccc(C(C)C)c(N2C(=O)CS/C2=N\C(=O)Nc2ccc(-c3ncn(-c4ccc(OC(F)(F)F)cc4)n3)cc2F)c1 [Compound J85, (Z)-1-(2-Fluoro-4-(1-(4-(trifluoromethoxy)phenyl)-1H-1,2,4-triazol-3-yl)phenyl)-3-(3-(2-isopropyl-5-(methylamino)phenyl)-4-oxothiazolidin-2-ylidene)urea] | – | – | 50 to 100% | 50 to 100% | –
8 | CCOCc1ccc(C)cc1N1C(=O)CS/C1=N\C(=O)Nc1ccc(-c2nnc(-c3ccc(OC(F)(F)F)cc3)o2)cc1F [Compound J610, (Z)-1-(3-(2-(Ethoxymethyl)-5-methylphenyl)-4-oxothiazolidin-2-ylidene)-3-(2-fluoro-4-(5-(4-(trifluoromethoxy)phenyl)-1,3,4-oxadiazol-2-yl)phenyl)urea] | 50 to 100% | 50 to 100% | – | – | –
9 | COc1ccc(C(C)C)c(N2C(=O)CS/C2=N\C(=O)Nc2ccc(-c3ncn(-c4ccc(OC(F)(F)C(F)(F)F)cc4)n3)cc2C)c1 [Compound J25, (Z)-1-(3-(2-Isopropyl-5-methoxyphenyl)-4-oxothiazolidin-2-ylidene)-3-(2-methyl-4-(1-(4-(perfluoroethoxy)phenyl)-1H-1,2,4-triazol-3-yl)phenyl)urea] | – | – | 50 to 100% | 50 to 100% | –
10 | Cc1cc(-c2ncn(-c3ccc(OCC#N)cc3)n2)ccc1NC(=O)/N=C1\SCC(=O)N1c1cc(N(C)C)ccc1C(C)C [Compound J357, (Z)-1-(4-(1-(4-(Cyanomethoxy)phenyl)-1H-1,2,4-triazol-3-yl)-2-methylphenyl)-3-(3-(5-(dimethylamino)-2-isopropylphenyl)-4-oxothiazolidin-2-ylidene)urea] | 50 to 100% | 50 to 100% | – | – | –
11 | CCCOc1ccc(C)cc1N1C(=O)CS/C1=N\C(=O)Nc1ccc(-c2cn(-c3ccc(S(F)(F)(F)(F)F)cc3)cn2)cc1F [Compound J595, (Z)-1-(2-Fluoro-4-(1-(4-(pentafluoro-λ^6-sulfaneyl)phenyl)-1H-imidazol-4-yl)phenyl)-3-(3-(5-methyl-2-propoxyphenyl)-4-oxothiazolidin-2-ylidene)urea] | 50 to 100% | 50 to 100% | – | – | –
12 | Cc1ccc(COCC(F)(F)F)c(N2C(=O)CS/C2=N\C(=O)Nc2ccc(-c3nnn(-c4ccc(OC(F)(F)F)cc4)n3)cc2)c1 [Compound J767, (Z)-1-(3-(5-Methyl-2-((2,2,2-trifluoroethoxy)methyl)phenyl)-4-oxothiazolidin-2-ylidene)-3-(4-(2-(4-(trifluoromethoxy)phenyl)-2H-tetrazol-5-yl)phenyl)urea] | 50 to 100% | 50 to 100% | – | – | –
13 | Cc1ccc(COCc2cccc(F)c2)c(N2C(=O)CS/C2=N\C(=O)Nc2ccc(-c3ncn(-c4ccc(OC(F)(F)F)cc4)n3)cc2F)c1 [Compound J568, (Z)-1-(2-fluoro-4-(1-(4-(trifluoromethoxy)phenyl)-1H-1,2,4-triazol-3-yl)phenyl)-3-(3-(2-(((3-fluorobenzyl)oxy)methyl)-5-methylphenyl)-4-oxothiazolidin-2-ylidene)urea] | 50 to 100% | 50 to 100% | – | – | –
14 | COc1ccc(C(C)C)c(N2C(=O)CS/C2=N\C(=O)Nc2ccc(-c3ncn(-c4ccc(C(F)(F)F)cn4)n3)cc2F)c1 [Compound J283, (Z)-1-(2-fluoro-4-(1-(5-(trifluoromethyl)pyridin-2-yl)-1H-1,2,4-triazol-3-yl)phenyl)-3-(3-(2-isopropyl-5-methoxyphenyl)-4-oxothiazolidin-2-ylidene)urea] | – | – | 50 to 100% | 50 to 100% | –
15 | Cc1ccc(OCCCC(F)(F)F)c(N2C(=O)CS/C2=N\C(=O)Nc2ccc(-n3cnc(-c4ccc(OC(F)(F)F)cc4)n3)cc2C)c1 [Compound J465, (Z)-1-(3-(5-Methyl-2-(4,4,4-trifluorobutoxy)phenyl)-4-oxothiazolidin-2-ylidene)-3-(2-methyl-4-(3-(4-(trifluoromethoxy)phenyl)-1H-1,2,4-triazol-1-yl)phenyl)urea] | 50 to 100% | 50 to 100% | – | – | –
16 | CCOCc1ccc(C)cc1N1C(=O)CS/C1=N\C(=O)Nc1ccc(-c2ncn(-c3cccc(OC(F)(F)F)c3)n2)cc1C [Compound J726] | – | – | – | – | CL rating [1]: A (50-100); BAW rating [2]: A (50-100)
17 | Cc1ccc(OCC(F)(F)F)c(N2C(=O)CS/C2=N\C(=O)Nc2ccc(-c3cn(-c4ccc(S(F)(F)(F)(F)F)cc4)cn3)cc2F)c1 [Compound J596, (Z)-1-(2-Fluoro-4-(1-(4-(pentafluoro-λ^6-sulfaneyl)phenyl)-1H-imidazol-4-yl)phenyl)-3-(3-(5-methyl-2-(2,2,2-trifluoroethoxy)phenyl)-4-oxothiazolidin-2-ylidene)urea] | 50 to 100% | 50 to 100% | – | – | –
